One assay has as its target T1, Cyclooxygenase (Rattus norvegicus, UniProt P35355+Q63921).
T1 sequence (P35355 whole entry): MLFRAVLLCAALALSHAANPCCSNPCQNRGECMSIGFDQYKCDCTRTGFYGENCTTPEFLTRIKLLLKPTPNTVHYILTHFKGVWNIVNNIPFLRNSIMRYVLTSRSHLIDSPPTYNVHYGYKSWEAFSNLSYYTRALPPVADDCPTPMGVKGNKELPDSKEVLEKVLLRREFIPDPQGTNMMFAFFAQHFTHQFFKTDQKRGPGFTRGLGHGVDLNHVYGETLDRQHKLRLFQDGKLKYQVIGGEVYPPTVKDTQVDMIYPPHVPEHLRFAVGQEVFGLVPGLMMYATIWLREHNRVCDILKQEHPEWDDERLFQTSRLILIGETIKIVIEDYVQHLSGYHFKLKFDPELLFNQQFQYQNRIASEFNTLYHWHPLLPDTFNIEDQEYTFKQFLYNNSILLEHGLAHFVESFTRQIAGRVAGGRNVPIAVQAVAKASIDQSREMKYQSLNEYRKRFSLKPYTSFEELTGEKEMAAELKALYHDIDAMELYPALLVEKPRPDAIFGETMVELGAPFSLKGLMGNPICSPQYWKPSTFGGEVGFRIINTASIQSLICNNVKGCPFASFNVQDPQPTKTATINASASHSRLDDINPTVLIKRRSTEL
T1 sequence (Q63921 whole entry): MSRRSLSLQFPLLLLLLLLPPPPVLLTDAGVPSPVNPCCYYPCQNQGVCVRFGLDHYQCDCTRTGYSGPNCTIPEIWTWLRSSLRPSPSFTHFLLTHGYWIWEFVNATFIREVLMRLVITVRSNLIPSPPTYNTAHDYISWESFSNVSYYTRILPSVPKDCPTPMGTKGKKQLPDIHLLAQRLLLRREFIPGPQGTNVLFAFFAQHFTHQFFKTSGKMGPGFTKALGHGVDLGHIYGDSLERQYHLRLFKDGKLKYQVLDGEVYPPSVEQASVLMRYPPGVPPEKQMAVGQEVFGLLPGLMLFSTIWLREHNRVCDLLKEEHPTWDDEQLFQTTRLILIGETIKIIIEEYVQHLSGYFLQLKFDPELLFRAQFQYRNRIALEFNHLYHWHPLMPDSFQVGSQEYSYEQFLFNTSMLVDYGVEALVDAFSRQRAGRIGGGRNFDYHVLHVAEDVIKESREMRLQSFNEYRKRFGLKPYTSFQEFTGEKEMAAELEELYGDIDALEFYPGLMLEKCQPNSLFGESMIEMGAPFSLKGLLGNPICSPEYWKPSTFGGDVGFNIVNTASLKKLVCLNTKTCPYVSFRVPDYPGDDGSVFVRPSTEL
The assay is described as follows: The compound was tested for the inhibition of Prostaglandin G/H synthase in intact basophilic rat leukemia cells.

In assay [1] the target is T2, Polyunsaturated fatty acid 5-lipoxygenase (Rattus norvegicus, UniProt P12527).
T2 sequence (P12527 whole entry): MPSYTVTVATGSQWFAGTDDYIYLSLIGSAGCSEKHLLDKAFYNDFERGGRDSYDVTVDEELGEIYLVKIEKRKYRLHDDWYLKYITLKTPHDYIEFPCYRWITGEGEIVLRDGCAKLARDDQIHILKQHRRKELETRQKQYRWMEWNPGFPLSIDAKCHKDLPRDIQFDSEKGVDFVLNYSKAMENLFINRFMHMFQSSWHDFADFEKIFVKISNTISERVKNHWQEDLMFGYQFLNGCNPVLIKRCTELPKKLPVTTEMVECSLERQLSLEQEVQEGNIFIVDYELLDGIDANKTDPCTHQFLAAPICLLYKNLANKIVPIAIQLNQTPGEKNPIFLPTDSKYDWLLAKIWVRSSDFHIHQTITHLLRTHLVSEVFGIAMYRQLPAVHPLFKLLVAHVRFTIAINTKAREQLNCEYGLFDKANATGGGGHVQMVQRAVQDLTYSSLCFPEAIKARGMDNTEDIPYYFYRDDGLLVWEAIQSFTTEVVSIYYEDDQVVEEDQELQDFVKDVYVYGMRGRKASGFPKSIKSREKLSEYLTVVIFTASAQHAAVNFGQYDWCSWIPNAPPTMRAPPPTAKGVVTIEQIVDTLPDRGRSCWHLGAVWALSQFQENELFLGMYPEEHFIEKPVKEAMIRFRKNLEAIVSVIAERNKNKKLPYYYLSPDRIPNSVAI
In words: The compound was tested for the inhibition of 5-lipoxygenase in intact basophilic rat leukemia cells. It counts as cell-based, RBL-1.

The target of assay [2] is T3, Cyclooxygenase (Rattus norvegicus) (UniProt P35355+Q63921). In words: The compound was tested for the inhibition of Prostaglandin G/H synthase in intact basophilic rat leukemia cells at 16 uM.
Assay [3] has as its target T4, Polyunsaturated fatty acid 5-lipoxygenase (Rattus norvegicus) (UniProt P12527).
T4 sequence (whole entry): T2 sequence (P12527 whole entry)
In words: The compound was tested for the inhibition of 5-lipoxygenase in intact basophilic rat leukemia cells at 1.0 uM. It counts as cell-based. Conditions: RBL-1.

Assay [4] deals with T3, Cyclooxygenase (Rattus norvegicus). In words: The compound was tested for the inhibition of Prostaglandin G/H synthase in intact basophilic rat leukemia cells at 10 uM.
Assay [5] deals with T4, Polyunsaturated fatty acid 5-lipoxygenase (Rattus norvegicus). The assay is described as follows: The compound was tested for the inhibition of 5-lipoxygenase in intact basophilic rat leukemia cells at 10 uM. The format is cell-based. Conditions: RBL-1.

`CC(C)(C)c1cc(Sc2nnc(S)s2)cc(C(C)(C)C)c1O`: the IC50 (in general, the concentration at which inhibition is half-maximal) against Cyclooxygenase worked out at 3.6 µM.

As to `CC(C)(C)c1cc(Sc2nnc(NC#N)s2)cc(C(C)(C)C)c1O`, the figures for the IC50 (in assay [1]; against Cyclooxygenase) were 3.1 µM and 6 µM, respectively. As for `CC(C)(C)c1cc(Sc2nnc(O)s2)cc(C(C)(C)C)c1O`, the figures for the inhibition in assay [2] and in assay [3] were below 40% and 75%, respectively. As for `CC(C)(C)c1cc(Sc2nnc(S)o2)cc(C(C)(C)C)c1O`, the IC50 against Cyclooxygenase is 1.5 µM.

In assay [1], `CC(C)(C)c1cc(Sc2nnc(O)o2)cc(C(C)(C)C)c1O` displayed an IC50 of 1.1 µM. Besides, the inhibition (in general, the percentage by which the read-out fell short of the control) in assay [2] is below 40%.

As for `CC(C)(C)c1cc(Sc2nnc(N)s2)cc(C(C)(C)C)c1O`, the inhibition in assay [4] and in assay [5] was below 40% each time.

The record behind these values is ChEMBL document CHEMBL1127170, “Cyclooxygenase and 5-lipoxygenase inhibitory activity of 2,6 di-t-butylphenols linked by a sulfur atom to 1,3,4-thiadiazoles and 1,3,4-oxadiazoles” (Bioorg Med Chem Lett, 1993).
